Source: US20120177710A1, “TOPICALLY APPLICABLE COMPOSITION FOR USE AS A SKIN BLEACHING AGENT” (DSM IP ASSETS B.V., priority 2005, published 2012)

Test system: MelanoDerm Mel-300B tissues of the dark skin type
Assay: Reduction in melanin content after treatment of MelanoDerm tissues of the dark skin type
Format: cell-based
Details: absorption at 450 nm, control = 100; for Melanin content in % 8 days of treatment, measured after 16 days: 10 mM per tissue topically, then a further eight days in normal medium without test substance; for Melanin content in % after 16 days of treatment: test substance applied topically as aqueous solution, 10 mM per tissue, renewed every 48 hours
Method: Determination of the Reduction in Melanin Content after the Treatment of Melanoderm Tissues of the Dark Skin Type with Test Substances
Test substances: compound 1 and cystamine as standard • Cultivation of the Tissues and Application of the Test Substances
The tissues, treated according to the manufacturer's instructions, were transferred to 6-well plates containing 3 ml of medium per well. The tissues were placed on membrane inserts (Transwell-Clear from Corning). 2 ml of medium were pipetted into the lower compartment and 1 ml of medium into the upper compartment. The test substances were applied topically as an aqueous solution at a rate of 10 mM per tissue. The medium and the test substance were renewed every 48 hours by rinsing the surface of the tissues with 500 μl of warm PBS and applying fresh test substance. After 8 days the test substance was removed from two tissues per treatment type and cultivation was continued for a further eight days with normal medium not containing test substance. The other two tissues per treatment type were incubated further with test substance. The experiment lasted a total of 16 days. • Extraction of the Melanin
The membranes with the pigmented epidermis were cut out of the holders with a scalpel and transferred to screw-capped Eppendorf tubes. 200 μl of 1% SDS in 10 mM Tris, 0.05 mM EDTA pH 6.8 and 20 μl of Proteinase K were pipetted into each tube. The Eppendorf tubes were incubated overnight in a Thermomixer at 45° C. The following morning a further 20 μl of Proteinase K were pipetted into each tube and incubation was continued for 6 hours. The lysate was rendered basic by the addition of 25 μl of 500 mM NaHCO3 and incubated in the Thermomixer for 30 min at 80° C. Fats and proteins were removed from the lysate by treatment with 200 μl of methanol/chloroform (2:1). 3×100 μl of supernatant were pipetted into a 96-well plate and the absorption was measured at 450 nm. • Results

| SMILES | Melanin content in % 8 days of treatment, measured after 16 days [%] | Melanin content in % after 16 days of treatment [%] |
| --- | --- | --- |
| N=C(N)NCCSSCCNC(=N)N [Compound 1] | 23 | 12 |
| NCCSSCCN [Cystamine (standard), bis(2-aminoethyl)disulfide] | 52 | 30 |
